The record followed here is EPA's ToxValDB 9.5 (doi:10.2903/j.efsa.2015.3984).

As usually defined, the NOAEL is the highest tested level that showed no adverse finding.

The test system of one data set is Oncorhynchus mykiss. The following applies: mortality.
Another data set deals with Daphnia magna. To be noted: chronic/long-term; duration: 21 days.
For another data set, the system named is Palaemonetes pugio. The following applies: acute; duration: 96 hours; mortality.
In a further data set the test system is Lepomis macrochirus. The following applies: acute; duration: 96 hours; mortality.
The test system of a further data set is Canidae. The following applies: oral, Dog Other, organ weight.
Another data set concerns Colinus virginianus. The following applies: reproduction developmental.
The test system of another data set is Coturnix japonica. To be noted: acute, oral.
The subject of another data set is Bibionidae. The following applies: chronic/long-term; duration: 28 days; development.
Another data set deals with Rattus norvegicus. To be noted: chronic.
The subject of the next data set is Menidia beryllina. To be noted: acute; duration: 96 hours; mortality.
The subject of another data set is Apis mellifera. The following applies: acute, duration: 48 hours, mortality.
The subject of another data set is Mus musculus. To be noted: acute; oral; mortality.
The next data set has as its system Typhlodromus pyri. In words: LR50; higher = less toxic. To be noted: chronic/long-term; duration: 7 days; mortality.
The next data set deals with Aphidius rhopalosiphi. Briefly: LR50; higher = less toxic. To be noted: acute; duration: 48 hours; mortality.

As for `COc1ncc(F)c2nc(S(=O)(=O)Nc3c(F)cccc3F)nn12` [Florasulam], the LC50 in the data set with Oncorhynchus mykiss (acute, duration: 96 hours) was more than 100 µg/mL; in the data set with Palaemonetes pugio, more than 120 µg/mL; in the data set with Lepomis macrochirus it was more than 100 µg/mL; with Tagia sp. (acute, duration: 14 days, mortality) it was more than 1320 mg/kg; in the data set on Coturnix japonica (diet), more than 938 mg/kg-day; with Menidia beryllina, more than 122 µg/mL. For the same molecule, the NOEC in the data set with Oncorhynchus mykiss (chronic/long-term, duration: 28 days) is 119 mg/L; in the data set with Daphnia magna, 23.4 mg/L; in the data set with Tagia sp. (chronic/long-term) it was 0.203 mg/kg; in the data set with Bibionidae, 10 mg/L. Besides, the NOAEL was 5 mg/kg-day with Canidae (chronic, duration: 1 years); 5 mg/kg-day in the data set with Canidae (subchronic, duration: 90 days); 1500 mg/kg-day in the data set with Colinus virginianus; more than 100 mg/kg-day with Rattus norvegicus. Also, the LD50 was 1050 mg/kg-day in the data set with Coturnix japonica (mortality); more than 100 µg/piece in the data set with Apis mellifera (dermal); more than 100 µg/piece in the data set on Apis mellifera (oral, unspecified); more than 5000 mg/kg-day in the data set on Mus musculus. Further, the LR50 with Typhlodromus pyri and with Aphidius rhopalosiphi was more than 15 g/ha in each case.
